# Values joined by “and” are separate entries in the source; they are usually repeats but may differ in a detail not shown here. Equal values may be shown once. Toxic doses and inconclusive results are not listed.
# Test system: P388 leukemia ip, CD2F1 mice, survival T/C
# Assay: NCI In Vivo Anticancer Drug Screen. Data for tumor model P388 Leukemia (intraperitoneal) in CD2F1 (CDF1) mice
# Conditions: endpoint: median survival time, higher = longer survival
# Outline: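 Mice carrying the transplanted tumor received test compound or vehicle. Survival was recorded in each group, and the value is the treated-group measurement divided by that of the vehicle-treated control group.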
# [1] = dose: 12.5 mg/kg/injection, schedule: Q01DX005 (ip), vehicle: saline with Tween-80
# [2] = dose: 25.0 mg/kg/injection, schedule: Q01DX005 (ip), vehicle: saline with Tween-80
# [3] = dose: 100.0 mg/kg/injection, schedule: Q01DX005 (ip), vehicle: saline with Tween-80
# [4] = dose: 100.0 mg/kg/injection, schedule: Q01DX009 (ip), vehicle: Klucel (hydroxypropylcellulose) (HPC)
# [5] = dose: 100.0 mg/kg/injection, schedule: Q04DX002 (ip), vehicle: saline with Tween-80
# [6] = dose: 50.0 mg/kg/injection, schedule: Q01DX009 (ip), vehicle: Klucel (hydroxypropylcellulose) (HPC)
# [7] = dose: 200.0 mg/kg/injection, schedule: Q01DX009 (ip), vehicle: Klucel (hydroxypropylcellulose) (HPC)
# [8] = dose: 50.0 mg/kg/injection, schedule: Q01DX001 (ip), vehicle: Klucel (hydroxypropylcellulose) (HPC)
# [9] = dose: 100.0 mg/kg/injection, schedule: Q01DX001 (ip), vehicle: Klucel (hydroxypropylcellulose) (HPC)
# [10] = dose: 50.0 mg/kg/injection, schedule: Q01DX005 (ip), vehicle: saline with Tween-80
# [11] = dose: 200.0 mg/kg/injection, schedule: Q01DX005 (ip), vehicle: saline with Tween-80
# [12] = dose: 3.13 mg/kg/injection, schedule: Q01DX009 (ip), vehicle: saline
# [13] = dose: 50.0 mg/kg/injection, schedule: Q01DX009 (ip), vehicle: saline with Tween-80
# [14] = dose: 100.0 mg/kg/injection, schedule: Q01DX009 (ip), vehicle: saline with Tween-80
# [15] = dose: 200.0 mg/kg/injection, schedule: Q01DX009 (ip), vehicle: saline with Tween-80
smiles,measurement,setting,value
CCCCNP1(NCCCC)=NP(NCCCC)(NCCCC)=NP(NCCCC)(NCCCC)=NP(NCCCC)(NCCCC)=N1,T/C,[1],106 % of control
same,T/C,[2],116 % of control
same,T/C,[3],88 % of control
CCN(CC)CCNc1ccc(C)c2sc3cccc(O)c3c(=O)c12,T/C,[4],181 % of control
NCC(O)COCc1ccccc1 (stereo not given),T/C,"dose: 50.0 mg/kg/injection, schedule: Q04DX002 (ip), vehicle: saline with Tween-80",100 % of control
same,T/C,"dose: 100.0 mg/kg/injection, schedule: Q01DX001 (ip), vehicle: saline with Tween-80",90 % of control
same,T/C,[5],100 % of control
Cc1cc2nc(CC(=O)c3cccnc3)c(CC(=O)c3cccnc3)nc2cc1C,T/C,"dose: 6.25 mg/kg/injection, schedule: Q01DX005 (ip), vehicle: saline with Tween-80",90 % of control
same,T/C,[1],90 % of control
same,T/C,[2],90 % of control
same,T/C,[3],91 % of control
C[n+]1ccc(NN)cc1,T/C,"dose: 50.0 mg/kg/injection, schedule: Q01DX005 (ip), vehicle: Klucel (hydroxypropylcellulose) (HPC)",100 % of control
same,T/C,"dose: 100.0 mg/kg/injection, schedule: Q01DX005 (ip), vehicle: Klucel (hydroxypropylcellulose) (HPC)",103 % of control
same,T/C,"dose: 200.0 mg/kg/injection, schedule: Q01DX005 (ip), vehicle: Klucel (hydroxypropylcellulose) (HPC)",101 % of control
COc1ccc(CC2=CC(=O)C(=O)C=C2C)cc1,T/C,"dose: 2.5 mg/kg/injection, schedule: Q01DX009 (ip), vehicle: saline + alcohol",101 % of control
same,T/C,"dose: 5.0 mg/kg/injection, schedule: Q01DX009 (ip), vehicle: saline + alcohol",100 % of control
same,T/C,"dose: 10.0 mg/kg/injection, schedule: Q01DX009 (ip), vehicle: saline + alcohol",102 % of control
CN(C)[Si](c1ccccc1)(c1ccccc1)N(C)C,T/C,[6],102 % of control
same,T/C,[4],102 % of control
same,T/C,[7],106 % of control
O=C(O)CS(=O)(=O)CCCCCS(=O)(=O)CC(=O)O,T/C,"dose: 50.0 mg/kg/injection, schedule: Q01DX009 (ip), vehicle: saline",106 % of control
same,T/C,"dose: 100.0 mg/kg/injection, schedule: Q01DX009 (ip), vehicle: saline",104 % of control
same,T/C,"dose: 200.0 mg/kg/injection, schedule: Q01DX009 (ip), vehicle: saline",105 % of control
O=C(CC(=NCCN=C(CC(=O)c1ccccc1)c1ccccc1)c1ccccc1)c1ccccc1.[Cu],T/C,[5],98 % of control
same,T/C,"dose: 200.0 mg/kg/injection, schedule: Q04DX002 (ip), vehicle: saline with Tween-80",96 % of control
same,T/C,"dose: 400.0 mg/kg/injection, schedule: Q04DX002 (ip), vehicle: saline with Tween-80",95 % of control
CN(C)c1cc(C(=O)O)nc(C(=O)O)c1,T/C,"dose: 25.0 mg/kg/injection, schedule: Q01DX001 (ip), vehicle: Klucel (hydroxypropylcellulose) (HPC)",101 % of control
same,T/C,[8],107 % of control
same,T/C,[9],107 % of control and 87 % of control
COC(=O)c1c2cccc(C)c2nc2c(C)cccc12,T/C,[10],107 % of control
same,T/C,[3],107 % of control
same,T/C,[11],100 % of control
C[N+](C)(C)CCC(=O)c1ccc(Cl)cc1,T/C,[12],109 % of control
same,T/C,"dose: 6.25 mg/kg/injection, schedule: Q01DX009 (ip), vehicle: saline",96 % of control
same,T/C,"dose: 12.5 mg/kg/injection, schedule: Q01DX009 (ip), vehicle: saline",103 % of control
CC1(C)[C@H](O)CC[C@]2(C)[C@@H]1CC[C@]13C=C[C@](C)(C1)[C@H](O)C[C@H]32,T/C,"dose: 1.88 mg/kg/injection, schedule: Q01DX005 (ip), vehicle: Klucel (hydroxypropylcellulose) (HPC)",96 % of control
same,T/C,"dose: 3.75 mg/kg/injection, schedule: Q01DX005 (ip), vehicle: Klucel (hydroxypropylcellulose) (HPC)",94 % of control
same,T/C,"dose: 7.5 mg/kg/injection, schedule: Q01DX005 (ip), vehicle: Klucel (hydroxypropylcellulose) (HPC)",91 % of control
same,T/C,"dose: 15.0 mg/kg/injection, schedule: Q01DX005 (ip), vehicle: Klucel (hydroxypropylcellulose) (HPC)",95 % of control
Cc1cc(Nc2ccc(O)cc2)nc(N)n1,T/C,[10],105 % of control
same,T/C,[3],99 % of control
same,T/C,[11],113 % of control
c1ccc(N[n+]2ccc3ccccc3c2)cc1,T/C,"dose: 6.25 mg/kg/injection, schedule: Q01DX009 (ip), vehicle: distilled water + alcohol",104 % of control
same,T/C,"dose: 12.5 mg/kg/injection, schedule: Q01DX009 (ip), vehicle: distilled water + alcohol",104 % of control
same,T/C,"dose: 25.0 mg/kg/injection, schedule: Q01DX009 (ip), vehicle: distilled water + alcohol",102 % of control
N#Cc1nc2ccccc2n1OCc1ccccc1,T/C,[6],97 % of control
same,T/C,[4],107 % of control
same,T/C,[7],102 % of control
C/C1=C2N=C(/C=C3N=C(/C(C)=C4\[N-]C(C(CC(N)=O)C4(C)CCC(=O)NCC(C)OP(=O)(O)OC4C(CO)OC(n5cnc6cc(C)c(C)cc65)C4O)C4(C)N=C1C(CCC(N)=O)C4(C)CC(N)=O)C(CCC(N)=O)C\3(C)C)C(CCC(N)=O)C/2(C)CC(N)=O.[CH2-]CC.[Co+2] (stereo not given),T/C,"dose: 76.1 micrograms/kg/injection, schedule: Q#A X Z (ip), vehicle: water",88 % of control
same,T/C,"dose: 7610.0 micrograms/kg/injection, schedule: Q#A X Z (ip), vehicle: water",99 % of control
CS/C(=C(\C#N)C(N)=O)N1CC1,T/C,"dose: 25.0 mg/kg/injection, schedule: Q04DX002 (ip), vehicle: DMSO",94 % of control
same,T/C,"dose: 50.0 mg/kg/injection, schedule: Q04DX002 (ip), vehicle: DMSO",100 % of control
same,T/C,"dose: 100.0 mg/kg/injection, schedule: Q04DX002 (ip), vehicle: DMSO",102 % of control and 95 % of control
same,T/C,"dose: 200.0 mg/kg/injection, schedule: Q04DX002 (ip), vehicle: DMSO",100 % of control
C=CC(CO)N1CC1 (stereo not given),T/C,"dose: 0.78 mg/kg/injection, schedule: Q01DX009 (ip), vehicle: saline",108 % of control
same,T/C,"dose: 1.56 mg/kg/injection, schedule: Q01DX009 (ip), vehicle: saline",108 % of control
same,T/C,[12],108 % of control
CCCCCCC1NC(CCCCC)N2C(CCCCC)N12 (stereo not given),T/C,[8],101 % of control
same,T/C,[9],103 % of control
same,T/C,"dose: 200.0 mg/kg/injection, schedule: Q01DX001 (ip), vehicle: Klucel (hydroxypropylcellulose) (HPC)",95 % of control
ClC1=C(Cl)C(Cl)=C(Cl)C1=Cc1ccccc1,T/C,"dose: 6.25 mg/kg/injection, schedule: Q01DX009 (ip), vehicle: saline with Tween-80",108 % of control
same,T/C,"dose: 12.5 mg/kg/injection, schedule: Q01DX009 (ip), vehicle: saline with Tween-80",118 % of control
same,T/C,"dose: 25.0 mg/kg/injection, schedule: Q01DX009 (ip), vehicle: saline with Tween-80",117 % of control
same,T/C,[13],123 % of control
CC1(C)c2ccccc2-c2nc3ccccc3cc2C1N1CCOCC1 (stereo not given),T/C,[10],92 % of control
same,T/C,[3],104 % of control
same,T/C,[11],101 % of control
COC(=O)C(C)N(CCCl)P1(=O)OCCCN1CCCl (stereo not given),T/C,"dose: 60.0 mg/kg/injection, schedule: Q01DX005 (ip), vehicle: saline with Tween-80",108 % of control
same,T/C,"dose: 60.0 mg/kg/injection, schedule: Q01DX005 (ip), vehicle: saline",99 % of control
same,T/C,"dose: 120.0 mg/kg/injection, schedule: Q01DX005 (ip), vehicle: saline with Tween-80",124 % of control
same,T/C,"dose: 240.0 mg/kg/injection, schedule: Q01DX005 (ip), vehicle: saline with Tween-80",165 % of control
same,T/C,"dose: 240.0 mg/kg/injection, schedule: Q01DX005 (ip), vehicle: saline",297 % of control
same,T/C,"dose: 400.0 mg/kg/injection, schedule: Q01DX005 (ip), vehicle: saline with Tween-80",252 % of control
Nc1ccc(S(=O)(=O)c2ccc(NCC(=O)O)cc2)cc1,T/C,[13],100 % of control
same,T/C,"dose: 50.0 mg/kg/injection, schedule: Q04DX003 (ip), vehicle: saline with Tween-80",100 % of control
same,T/C,[14],95 % of control
same,T/C,"dose: 100.0 mg/kg/injection, schedule: Q04DX003 (ip), vehicle: saline with Tween-80",100 % of control
same,T/C,[15],86 % of control
same,T/C,"dose: 200.0 mg/kg/injection, schedule: Q04DX003 (ip), vehicle: saline with Tween-80",100 % of control
CC(=O)Nc1ccc(O)c(O)c1,T/C,[13],116 % of control and 119 % of control
same,T/C,[14],120 % of control
same,T/C,[15],119 % of control
CC(=O)C(=C/C=C/c1ccccc1)C(C)=O,T/C,[10],90 % of control
same,T/C,[3],98 % of control
same,T/C,[11],100 % of control

# Reference: PubChem BioAssay AID330 (DTP/NCI, 2004)
